Measured values as given in US12576155B2, “Senolytic and antiinflammatory prodrugs and methods of use thereof” (priority 2019, dated 2026).

Experiments:
Format in all cases: cell-based
[1] = test system: human senescent fibroblasts induced by different stimuli; assay: Cell viability, senescent and non-senescent human embryonic fibroblasts (HEFs); details: human senescent cells; panel of FDA-approved drugs
Protocol: Human embryonic skin fibroblasts (HEFs) were obtained as previously described. Briefly, human embryonic skin tissues, obtained from aborted tissue with informed patient consent, were minced with forceps and incubated in 1 mg/ml collagenase IV for 1-2 hours at 37° C. After enzyme treatment, cells were collected by centrifugation and resuspended in HEF medium (Dulbecco's modified Eagle's medium (DMEM, Gibco) containing 10% fetal bovine serum (FBS, Ausbian), 1% GlutaMAX (Gibco), 1% Non-Essential Amino Acids (NEAA, Gibco) and 1% penicillin/streptomycin (Gibco). Cells were plated on 10 cm tissue culture dishes and grown in 10% FBS DMEM.
(§1) For replication-induced senescence, cells were passaged until they lost the ability to proliferate and became senescent. NBFs were used as senescent cells after approximately 8-9 passages or 12 population doublings. HEFs were used after approximately 35 passages or 50 population doublings. HUVECs were senescent after approximately 18 passages or 24 population doublings.
(§2) For ionizing radiation-induced senescence, MEFs and HEFs were exposed to 10 Gy of ionizing irradiation in an RS 2000 X-ray Biological Irradiator (Rad Source Technologies, Inc.) at a dose rate of 1.205 Gy/min. The day after irradiation, MEFs or HEFs were passaged at a 1:3 dilution and cultured for another three days. Then these cells were plated to carry out further experiments.
(§3) For etoposide-induced senescence, MEFs were treated with 2 μM etoposide for 20 hours, and HEFs were treated with 10 μM etoposide for 12-18 hours. Three days after treatment, cells were sub-cultured at a 1:3 ratio for 72 hours in a fresh medium before further analysis.
(§4) To test the viability of senescent and non-senescent cells treated with SSK1, cells were stained with a mixture of Hoechst 33342 and propidium iodide (PI) (CA1120, Solarbio) to distinguish living and dead cells. […] The plate was incubated at 4° C. for 30 min and observed on a fluorescence microscope or automatic cell imaging system. Viable cells were quantified using a MD Image Xpress Micro XL (Molecular Devices).

[2] = test system: primary mouse fibroblasts and their replication-induced senescent counterparts; assay: Cell viability testing, senescent vs non-senescent primary mouse fibroblasts
Protocol: Mouse embryonic fibroblasts (MEFs) were isolated from E13.5 embryos as described previously (Zhao et al., Cell Stem Cell 23, 31-45 e37([…])). Newborn mouse skin fibroblasts (NBFs) were isolated from the skin of day 1-3 newborn mice. Adult mouse lung fibroblasts were isolated from 2-month-old and 23-month-old mice. Briefly, mouse embryonic tissues, skin and lung were obtained from described donor mice. Then, these tissues were minced with forceps and incubated in 2 mg/ml collagenase IV (Gibco) for 2-4 hours at 37° C. After enzyme treatment, cells were collected by centrifugation and resuspended in high-glucose DMEM (Gibco) supplemented with 10% fetal bovine serum (FBS) and 1% penicillin-streptomycin (Gibco). The three types of mouse primary cells were all cultured in a humidified incubator at 37° C. and 5% CO2.
To avoid replication-induced senescent cells, low-passage proliferative NBFs (<3 passages), MEFs (<3 passages), mouse lung fibroblasts (<3 passages), HEFs (<10 passages), and HUVECs (<6 passages) were used as normal controls. To induce cell quiescence, MEFs were cultured in DMEM without FBS for 2 days.
as §1
as §4, with “cells. After treatment with the small molecules, the cell culture medium was removed, and the cells were washed once with PBS.” for “cells.”

senescent cells = assay: Cell viability, SSK1 combined with p38 inhibitors; details: SSK1 0.5 μM plus inhibitor
Protocol: To test the viability of senescent and non-senescent cells treated with SSK1, cells were stained with a mixture of Hoechst 33342 and propidium iodide (PI) (CA1120, Solarbio) to distinguish living and dead cells. After treatment with the small molecules, the cell culture medium was removed, and the cells were washed once with PBS. Then, the cells were stained according to the manufacturer's protocol, where the final concentrations of Hoechst 33342 and PI were 5 μg/ml and 2 μg/ml in PBS buffer. The plate was incubated at 4° C. for 30 min and observed on a fluorescence microscope or automatic cell imaging system. Viable cells were quantified using a MD Image Xpress Micro XL (Molecular Devices).

[3] = test system: β-galactosidase positive senescent human embryonic fibroblasts (HEFs); assay: CCK-8 cell viability, SSK2 in etoposide-induced senescent HEFs; details: increasing doses, 72 h
Protocol: as §3
Cultured cells were washed once with PBS and fixed in β-galactosidase staining fix solution for 15 min at room temperature. Cells were then washed three times with PBS and incubated with β-galactosidase staining solution (Beyotime Biotechnology) for 16-20 hours at 37° C. For 12-well plates, 1 ml of β-galactosidase staining solution was added to each well. The plate was sealed with Parafilm to prevent evaporation of the staining medium. After the overnight incubation, cells were washed with PBS and observed under a bright field microscope. For β-galactosidase staining of frozen sections, the frozen sections were dried at 37° C. for 20-30 min and then fixed in β-galactosidase staining fix solution for 15 min at room temperature. The frozen sections were washed three times with PBS and incubated with β-galactosidase staining solution overnight at 37° C. […]
Cell Counting Kit-8 (CCK-8) analysis was also used to assess cell viability. […] The absorbance was measured at 450 nm wavelength.

[4] = test system: primary human chondrocytes isolated from Osteoarthritis patient; assay: Viability / apoptosis of primary human OA chondrocytes (CCK-8, Annexin V flow cytometry)
Protocol: Fibroblasts were digested into single cell suspensions by incubation with 0.25% trypsin-EDTA (Invitrogen) at 37° C. for 3-5 min or with accutase at 37° C. for 10 min. Cells were then stained with FITC annexin V and propidium iodide (PI) according to the manufacturer's protocol (FITC Annexin V Apoptosis Detection Kit I, BD Pharmingen™). For chondrocytes Annexin V/7-AAD analysis, the trypsinized live chondrocytes and floating cells were collected, centrifuged and washed with PBS. Cells were stained with the Annexin V Apoptosis Detection Kit (Biolegend, 640934) according to the manufacturer's instruction. Before the flow cytometric analysis, the precision count beads (Biolegend, 424902) were added to count the absolute live cell numbers. Flow cytometry was performed within one hour on an Aria III (BD Biosciences) or FACSVerse (BD Biosciences). Data were analyzed using FlowJo software (FlowJo LLC).
Cell Counting Kit-8 (CCK-8) analysis was also used to assess cell viability. Senescent and non-senescent cells or chondrocytes were inoculated into 96-well plates and cultured overnight. Then cells were treated with vehicle (0.05% DMSO) or different concentrations of SSK2. After 48 h or 72 h, CCK-8 solution (C0041, Beyotime) was added to each well as 1:10 ratio and inoculated for another 2 h. The absorbance was measured at 450 nm wavelength.

[5] = test system: senescent human fibroblasts; assay: Other reported senolytic compounds in cultured senescent human fibroblasts; details: hydroperoxide-, replication-, irradiation- and etoposide-induced senescent cells
Excerpt: as §1, §2
For etoposide-induced senescence, MEFs were treated with 2 μM etoposide for 20 hours, and HEFs were treated with 10 μM etoposide for 12-18 hours. […]
as §4

Nc1ccn([C@@H]2O[C@H](CO)[C@@H](O)C2(F)F)c(=O)n1 [gemcitabine]
Cytotoxicity for senescent cells [1]: killed both mouse and human senescent cells effectively and potently | Selective killing of senescent cells (viable cells) ([2]; increasing doses, senescent vs non-senescent cells): killed both cell types | Cytotoxicity for senescent cells ([2]; mouse senescent cells, panel of FDA-approved drugs): killed both mouse and human senescent cells effectively and potently

C[S+]([O-])c1ccc(-c2nc(-c3ccncc3)c(-c3ccc(F)cc3)[nH]2)cc1 (stereo not shown) [SB203580]
Viable cells, SSK1 combined with p38 MAPK inhibitor (senescent cells): impaired SSK1's ability to specifically kill senescent cells

O=C(Nc1ccn([C@@H]2O[C@H](CO)C(O)C2(F)F)c(=O)n1)OCc1ccc(O[C@@H]2OC(CO)[C@H](O)C(O)C2O)c([N+](=O)[O-])c1 (stereo partly shown) [SSK2]
Selective killing of senescent HEFs (viable cells) [3]: efficiently and selectively kill β-galactosidase positive senescent human embryonic fibroblasts (HEFs) in a dose-dependent manner | Elimination of OA chondrocytes ([4]; FIG. 16: 10 μM, 72 h, FIG. 17: increasing concentrations): efficiently eliminate primary human chondrocytes isolated from Osteoarthritis patient | Viable human OA chondrocytes with increasing concentrations ([4]; SSK2 treatment for 48 h / 72 h as printed): Dose-dependent elimination of senescent cells

CC1(C)CCC(c2ccc(Cl)cc2)=C(CN2CCN(c3ccc(C(=O)NS(=O)(=O)c4ccc(N[C@H](CCN5CCOCC5)CSc5ccccc5)c(S(=O)(=O)C(F)(F)F)c4)cc3)CC2)C1 [ABT263]
Selective killing of senescent human fibroblasts compared with proliferative cells [5]: selectively killed hydroperoxide-induced senescent human fibroblasts but not replication-induced cells

Cc1ccc(-n2nc(C(C)(C)C)cc2NC(=O)Nc2ccc(OCCN3CCOCC3)c3ccccc23)cc1 [Birb796]
Viable cells, SSK1 combined with p38 MAPK inhibitor (senescent cells): impaired SSK1's ability to specifically kill senescent cells

Oc1ccc(-c2nc(-c3ccncc3)c(-c3ccc(F)cc3)[nH]2)cc1 [SB202190]
Viable cells, SSK1 combined with p38 MAPK inhibitor (senescent cells): impaired SSK1's ability to specifically kill senescent cells
